{
  "source": "ChEMBL document CHEMBL1201862",
  "about": "“PubChem BioAssay data set” (2004)",
  "key": {"cells": {"assay": "cells", "conditions": "HEK293"}, "[1]": {"assay": "miR-122 quantity in Huh7 after inhibitor exposure – cell-based, RT-qPCR, dry powder, orthogonal assay for miR-122 inhibitor project, dose response (AID 687041)", "format": "functional"}, "Paired box protein Pax-8": {"molecular_target": "Paired box protein Pax-8 (Homo sapiens, UniProt Q06710)", "sequence (Q06710 whole entry)": "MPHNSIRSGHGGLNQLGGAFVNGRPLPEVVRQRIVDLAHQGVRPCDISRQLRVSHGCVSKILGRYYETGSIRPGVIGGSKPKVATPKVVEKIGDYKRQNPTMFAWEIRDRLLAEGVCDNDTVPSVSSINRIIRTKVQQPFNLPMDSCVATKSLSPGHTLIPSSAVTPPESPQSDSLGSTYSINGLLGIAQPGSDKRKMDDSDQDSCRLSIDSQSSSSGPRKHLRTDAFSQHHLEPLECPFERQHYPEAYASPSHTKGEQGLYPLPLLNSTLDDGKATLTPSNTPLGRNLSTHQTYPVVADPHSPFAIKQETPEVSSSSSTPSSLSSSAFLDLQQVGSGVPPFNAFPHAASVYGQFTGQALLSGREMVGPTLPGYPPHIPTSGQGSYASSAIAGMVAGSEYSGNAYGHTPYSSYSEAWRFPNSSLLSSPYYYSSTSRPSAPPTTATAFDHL", "assay": "PAX8 transcriptional activity inhibition in RMG-I – RMG-I cells, luciferase, cherry-pick, dose response (AID 687027);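 further: luciferase reporter driven by Pax8 target thyroperoxidase promoter measured by SteadyGlo luminescence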", "format": "functional, cell-based"}, "[2]": {"assay": "inhibitors acting on PAX2 in cells – cell-based, plate reader, dry powder samples, selectivity assay for PAX8 inhibitor project, dose response (AID 743048);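 further: HEK293 cells carrying a WT1 promoter luciferase reporter driven by expressed Pax2; potency is for inhibition of Pax2 driven reporter signal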", "format": "functional"}, "[3]": {"assay": "PAX5 cellular inhibition readout – cell-based, plate reader, dry powder samples, selectivity assay for PAX8 inhibitor project, dose response (AID 743047);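 further: HEK293 cells carrying a Pax5 driven CD19 promoter luciferase reporter; potency of inhibitors that lower reporter luminescence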", "format": "functional"}, "[4]": {"assay": "COV434 cell viability loss – plate reader, dry powder, SA7, cytotoxicity control for PAX8 inhibitor project, dose response (AID 743145)", "format": "functional, cell-based"}, "[5]": {"assay": "PAX8-dependent cell viability loss – plate reader, dry powder, dose response (AID 743049)", "format": "functional, cell-based"}, "[6]": {"molecular_target": "NAD-dependent protein deacylase sirtuin-5, mitochondrial (Homo sapiens, UniProt Q9NXA8)", "sequence (Q9NXA8 whole entry)": "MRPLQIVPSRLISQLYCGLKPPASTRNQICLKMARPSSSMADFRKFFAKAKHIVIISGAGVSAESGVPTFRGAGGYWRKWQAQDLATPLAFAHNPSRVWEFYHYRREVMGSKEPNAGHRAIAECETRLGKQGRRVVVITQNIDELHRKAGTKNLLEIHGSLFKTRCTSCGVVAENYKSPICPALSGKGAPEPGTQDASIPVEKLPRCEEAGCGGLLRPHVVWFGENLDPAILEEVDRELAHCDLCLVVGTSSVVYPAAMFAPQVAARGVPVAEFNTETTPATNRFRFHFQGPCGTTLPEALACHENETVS", "assay": "sirtuin-5 deacylation blockers, concentration series – biochemical, fluorescence imaging, cherry-pick, set 5, dose response (AID 720591);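 further: desuccinylation of succinyl peptide AMC substrate read as fluorescence after trypsin release; potency of inhibitors that lower fluorescence and may act on trypsin instead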"}, "[7]": {"molecular_target": "E3 ubiquitin-protein ligase UHRF1 (Homo sapiens, UniProt Q96T88)", "sequence (Q96T88 whole entry, the tested form may be a part)": "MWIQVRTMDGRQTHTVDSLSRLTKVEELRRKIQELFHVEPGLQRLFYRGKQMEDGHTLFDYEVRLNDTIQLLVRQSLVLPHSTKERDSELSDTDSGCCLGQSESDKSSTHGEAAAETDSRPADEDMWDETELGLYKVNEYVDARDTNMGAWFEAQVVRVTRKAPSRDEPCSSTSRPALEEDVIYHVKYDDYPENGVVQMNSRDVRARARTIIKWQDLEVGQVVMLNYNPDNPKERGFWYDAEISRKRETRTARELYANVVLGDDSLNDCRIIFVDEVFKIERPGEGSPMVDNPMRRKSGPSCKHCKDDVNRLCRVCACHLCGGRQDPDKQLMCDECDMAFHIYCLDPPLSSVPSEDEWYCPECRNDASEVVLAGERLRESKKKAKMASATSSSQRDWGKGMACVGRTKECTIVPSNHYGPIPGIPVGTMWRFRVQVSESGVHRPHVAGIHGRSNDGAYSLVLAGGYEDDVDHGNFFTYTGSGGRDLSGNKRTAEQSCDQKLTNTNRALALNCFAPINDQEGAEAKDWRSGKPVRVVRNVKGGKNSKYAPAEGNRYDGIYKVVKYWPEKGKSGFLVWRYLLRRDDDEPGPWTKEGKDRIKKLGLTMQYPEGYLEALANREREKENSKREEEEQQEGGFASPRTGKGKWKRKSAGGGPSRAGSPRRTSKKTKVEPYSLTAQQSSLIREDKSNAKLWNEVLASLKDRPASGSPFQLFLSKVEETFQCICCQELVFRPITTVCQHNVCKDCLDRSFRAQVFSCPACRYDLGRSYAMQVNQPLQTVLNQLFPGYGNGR", "assay": "Counterscreen for inhibitors of 5-meCpG-binding domain protein 2 (MBD2): TRFRET-based biochemical high throughput dose response assay to identify inhibitors of binding of ubiquitin-like with PHD and ring finger domains 1 (UHRF1) to methylated oligonucleotide."}, "[8]": {"assay": "viability loss in HepG2 hepatoma cells – cell-based, cherry-picks, set 5, cytotoxicity control, dose response (AID 1053118)", "format": "functional"}, "[9]": {"assay": "viability loss in HEK293 kidney cells – cell-based, cherry-picks, set 5, cytotoxicity control, dose response (AID 1053117)", "format": "functional"}, "[10]": {"assay": "viability loss in A549 lung cancer cells – cell-based, cherry-picks, […], cytotoxicity control, dose response (AID 1053119)", "format": "functional"}, "[11]": {"assay": "blockers of FN fibrillogenesis by fibroblasts – AH1F cells, Alexa488-FN fluorescence, cherry-picks, dose response (AID 1035475)", "format": "functional, cell-based"}, "[12]": {"assay": "P. falciparum Dd2 growth inhibitors, dose response, SYBR Green, cherry-picked samples (AID 1159567)", "format": "functional, cell-based"}, "[13]": {"assay": "toxicity to human hepatoma HepG2 cells – cell-based, cherry-picked samples, cytotoxicity control, dose response (AID 1159577)", "format": "functional"}, "[14]": {"molecular_target": "Potassium channel subfamily K member 3 (Homo sapiens, UniProt O14649)", "sequence (O14649 whole entry)": "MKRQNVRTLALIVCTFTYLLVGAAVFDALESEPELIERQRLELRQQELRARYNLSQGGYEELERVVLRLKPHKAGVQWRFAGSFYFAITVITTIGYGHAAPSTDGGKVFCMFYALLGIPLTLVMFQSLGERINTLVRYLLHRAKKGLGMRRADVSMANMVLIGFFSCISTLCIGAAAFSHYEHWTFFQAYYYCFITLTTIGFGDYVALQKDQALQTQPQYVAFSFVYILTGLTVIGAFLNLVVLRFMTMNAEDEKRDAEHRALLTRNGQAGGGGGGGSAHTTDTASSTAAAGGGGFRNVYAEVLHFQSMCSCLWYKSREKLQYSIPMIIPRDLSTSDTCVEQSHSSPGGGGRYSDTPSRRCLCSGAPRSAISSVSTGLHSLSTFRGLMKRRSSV", "assay": "inhibition of human KCNK3 channel flux – CHO cells, FluxOR thallium flux, SAR follow-up (AID 652212)", "format": "functional"}, "[15]": {"molecular_target": "C-X-C chemokine receptor type 4 (Homo sapiens, UniProt P61073)", "sequence (P61073 whole entry)": "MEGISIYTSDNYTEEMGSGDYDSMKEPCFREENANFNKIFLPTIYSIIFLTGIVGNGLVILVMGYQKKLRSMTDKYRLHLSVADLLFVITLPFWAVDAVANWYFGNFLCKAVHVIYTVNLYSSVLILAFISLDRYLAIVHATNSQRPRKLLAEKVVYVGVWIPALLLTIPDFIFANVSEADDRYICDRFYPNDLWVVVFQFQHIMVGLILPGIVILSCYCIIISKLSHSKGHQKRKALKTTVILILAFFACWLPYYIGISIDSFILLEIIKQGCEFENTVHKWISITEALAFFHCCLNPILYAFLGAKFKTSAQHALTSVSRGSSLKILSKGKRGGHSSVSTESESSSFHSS", "assay": "SAR analysis of small molecule antagonists of the CXCR6 receptor using a CXCR4 receptor luminescent beta-arrestin counterscreen.", "format": "functional"}, "[16]": {"molecular_target": "C-C chemokine receptor type 6 (Homo sapiens, UniProt P51684)", "sequence (P51684 whole entry)": "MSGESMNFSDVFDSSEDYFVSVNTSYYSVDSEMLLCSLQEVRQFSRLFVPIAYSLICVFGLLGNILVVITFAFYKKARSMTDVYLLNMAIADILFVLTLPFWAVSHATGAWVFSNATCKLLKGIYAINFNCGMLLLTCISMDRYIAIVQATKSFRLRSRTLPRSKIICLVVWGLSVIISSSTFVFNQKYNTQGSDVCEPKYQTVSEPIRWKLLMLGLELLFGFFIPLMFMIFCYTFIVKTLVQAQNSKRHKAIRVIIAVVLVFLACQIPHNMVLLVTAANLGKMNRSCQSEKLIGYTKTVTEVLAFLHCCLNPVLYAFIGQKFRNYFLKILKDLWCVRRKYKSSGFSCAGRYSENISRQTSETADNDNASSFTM", "assay": "SAR analysis of small molecule antagonists of the CXCR6 receptor using a CCR6 receptor luminescent beta-arrestin counterscreen.", "format": "functional"}},
  "note": "Active and inactive are the calls of the source. For most assays here, no stated cut-off is given here; in the data, actives have a measured AC50 and inactives only a lower limit.",
  "data": [
    {"smiles": "CC(=O)Oc1ccc(C(=O)Nc2cc(C)on2)cc1", "values": [
      {"measurement": "AC50", "setting": "cells", "value": "> 52 µM (inactive)"}
    ]},
    {"smiles": "S=C(Nc1ccc(Cl)cc1Cl)NC1CCCCC1", "values": [
      {"measurement": "AC50", "setting": "[1]", "value": "2.25 µM (active)"}
    ]},
    {"smiles": "C[C@@H]1CN([C@H](C)CO)C(=O)CCCn2nncc2CO[C@H]1CN(C)Cc1ccc(Oc2ccccc2)cc1", "values": [
      {"measurement": "AC50", "setting": "Paired box protein Pax-8", "value": "22.1 µM (active)"},
      {"measurement": "AC50", "setting": "[2]", "value": "47.9 µM (active)"},
      {"measurement": "AC50", "setting": "[3]", "value": "> 70 µM (inactive)"},
      {"measurement": "AC50", "setting": "[4]", "value": "0.00024 µM (active)"},
      {"measurement": "AC50", "setting": "[5]", "value": "> 70 µM (inactive)"}
    ]},
    {"smiles": "CCOC(=O)C1=C[C@@H](c2ccccc2)N(S(=O)(=O)c2ccc(C)cc2)[C@H]1c1ccccc1Cl", "values": [
      {"measurement": "AC50", "setting": "[6]", "value": "> 30 µM (inactive)"}
    ]},
    {"smiles": "CCCCn1nnnc1C1(C)CCC(=O)N1CCCn1ccnc1", "note": "(stereo not drawn)", "values": [
      {"measurement": "IC50", "setting": "[7]", "value": "> 43.7 µM (inactive)"}
    ]},
    {"smiles": "CO[C@@H]1CN(C)C(=O)c2ccc(NC(=O)c3ccc(-c4ccccc4)cc3)cc2OC[C@@H](C)NC[C@H]1C", "values": [
      {"measurement": "AC50", "setting": "[8]", "value": "10.8 µM (active)"},
      {"measurement": "AC50", "setting": "[9]", "value": "12.1 µM (active)"},
      {"measurement": "AC50", "setting": "[10]", "value": "12.3 µM (active)"},
      {"measurement": "AC50", "setting": "[11]", "value": "19.6 µM (active)"},
      {"measurement": "AC50", "setting": "[12]", "value": "8.67 µM (active)"},
      {"measurement": "AC50", "setting": "[13]", "value": "10.3 µM (active)"}
    ]},
    {"smiles": "Cc1cccc(C(=O)Nc2cccc(C(=O)Nc3ccccc3)c2)c1", "values": [
      {"measurement": "IC50", "setting": "[14]", "value": "1.14 µM (active)"}
    ]},
    {"smiles": "COc1cc(C(=O)NC2CC3CCCC(C2)N3CC(=O)Nc2ccc(Cl)cc2)cc(OC)c1OC", "note": "(stereo not drawn)", "values": [
      {"measurement": "IC50", "setting": "[15]", "value": "> 79 µM (inactive)"},
      {"measurement": "IC50", "setting": "[16]", "value": "> 79 µM (inactive)"}
    ]}
  ]
}
